Marks after values point to notes of the source that are not given here.
What was measured:
[1] = target: T1, chimeric protein PPARα-Gal4 (Homo sapiens, UniProt Q07869); experiment: PPAR activation, Gal4 chimera luciferase reporter gene in co-transfected CV-1 cells; format: cell-based; settings: 50 μM, 18 hours contact, CV-1 cells (monkey kidney cells)
T1 construct: Gal4 (fusion partner); expressed in transfected cells; host or cells: CV-1 cells (monkey kidney cells)
T1 sequence (Q07869 239-466 limits assumed): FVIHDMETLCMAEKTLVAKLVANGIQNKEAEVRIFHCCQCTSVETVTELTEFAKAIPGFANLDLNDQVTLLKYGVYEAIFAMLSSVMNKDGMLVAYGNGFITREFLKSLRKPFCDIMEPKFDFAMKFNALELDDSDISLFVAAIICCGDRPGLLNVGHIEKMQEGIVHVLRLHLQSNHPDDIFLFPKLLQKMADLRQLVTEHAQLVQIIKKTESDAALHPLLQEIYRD
Description: (§1) The measurement of the PPAR activation was performed according to a technique described by Lehmann et al. (J. Biol. Chem., 270, (1995), 12953-12956).
(§2) CV-1 cells (monkey kidney cells) are co-transfected with an expression vector for the chimeric proteins PPARα-Gal4 or PPARγ-Gal4 and with a “reporter” plasmid that allows the expression of the luciferase gene placed under the control of a promoter comprising Gal4 response elements.
(§3) The cells are plated into 96-well microplates and co-transfected using a commercial reagent with the reporter plasmid (pG5-tk-pGL3) and the expression vector for the chimeric protein (PPARα-Gal4 or PPARγ-Gal4). After incubating for 4 hours, whole culture medium (comprising 10% foetal calf serum) is added to the wells. After 24 hours, the medium is removed and replaced with whole medium comprising the test products (50 μM final). The products are left in contact with the cells for 18 hours. The cells are then lysed and the luciferase activity is measured using a luminometer. A PPAR activation factor can then be calculated by means of activation of the expression of the reporter gene induced by the product (relative to the control cells that have not received any product).

[2] = target: T2, chimeric protein PPARγ-Gal4 (Homo sapiens, UniProt P37231); experiment: as above; format: cell-based; settings: 50 μM, 18 hours contact, CV-1 cells (monkey kidney cells)
T2 construct: Gal4 (fusion partner); expressed in transfected cells; host or cells: CV-1 cells (monkey kidney cells)
T2 sequence (P37231 238-503 limits assumed): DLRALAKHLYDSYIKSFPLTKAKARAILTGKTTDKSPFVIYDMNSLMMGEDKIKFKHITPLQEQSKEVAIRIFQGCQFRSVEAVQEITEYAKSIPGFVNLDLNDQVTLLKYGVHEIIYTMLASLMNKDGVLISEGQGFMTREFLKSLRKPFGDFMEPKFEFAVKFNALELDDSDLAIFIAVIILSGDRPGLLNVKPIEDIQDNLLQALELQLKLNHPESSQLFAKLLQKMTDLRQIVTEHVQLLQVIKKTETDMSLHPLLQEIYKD
Description: as §1, §2, §3

[3] = system: Gal4 alone; experiment: Control reporter test without the PPAR ligand binding domain (vector expressing Gal4 alone); format: cell-based; settings: CV-1 cells
Description: CV-1 cells (monkey kidney cells) are co-transfected with an expression vector for the chimeric proteins PPARα-Gal4 or PPARγ-Gal4 and with a “reporter” plasmid that allows the expression of the luciferase gene placed under the control of a promoter comprising Gal4 response elements. The cells are plated into 96-well microplates and co-transfected using a commercial reagent with the reporter plasmid (pG5-tk-pGL3) and the expression vector for the chimeric protein (PPARα-Gal4 or PPARγ-Gal4). After incubating for 4 hours, whole culture medium (comprising 10% foetal calf serum) is added to the wells. After 24 hours, the medium is removed and replaced with whole medium comprising the test products (50 μM final). The products are left in contact with the cells for 18 hours. The cells are then lysed and the luciferase activity is measured using a luminometer. A PPAR activation factor can then be calculated by means of activation of the expression of the reporter gene induced by the product (relative to the control cells that have not received any product). […] In the absence of the binding domain for the PPAR α or γ ligand (vector expressing Gal4 alone), the luciferase activity measured in the presence of this product is zero.

[4] = system: db/db mice; experiment: Antidiabetic and hypolipidaemiant activity, oral, in db/db mice; format: in vivo; settings: 20 mg/kg/day orally for 15 days
Description: The antidiabetic and hypolipidaemiant activity of the compounds according to the invention was determined orally on db/db mice.
15-week-old db/db mice are treated orally for 15 days with the compound of Example 18 (20 mg/kg/day). Each group studied comprises seven animals. After treatment for 15 days, retro-orbital samples are taken under mild anaesthesia and after fasting for four hours.
The following parameters were measured:
Assay of the glycaemia (glucose oxidase) and of the lipid parameters on the sera at D15 (COBAS): triglycerides, total cholesterol (CHOL), HDL cholesterol (HDL-C) and free fatty acids (FFA) (BioMérieux and Waco Chemicals assay kit).
The measurements reported represent mean values±standard error.

[5] = serum at D15, fasting four hours, mean ± standard error

Row | melting point [°C] | Compound | further results
1 | 188 to 190 | O=C(O)C(CCc1ccc(F)cc1)Oc1ccc(-c2cc3ccccc3s2)cc1 (stereo not shown) [Example 146] | 
2 | 176 to 177 | O=C(O)[C@H](CCc1ccccc1)Oc1ccc(-c2ccsc2)cc1 [Example 8] | 
3 | 136 | O=C(O)C(CCc1ccccc1)Oc1ccc2oc3ccccc3c2c1 (stereo not shown) [Example 152] | 
4 | 109 to 110 | O=C(O)C(CCc1cccc(Cl)c1)Oc1ccc(-c2cc3ccccc3s2)cc1 (stereo not shown) [Example 141] | 
5 | 116 to 118 | O=C(O)C(CCc1cccs1)Oc1ccc(C(F)(F)F)cc1 (stereo not shown) [Example 229] | 
6 | 151 to 153 | O=C(O)[C@H](CCc1ccccc1)Oc1ccc(-c2cccs2)cc1 [Example 9] | 
7 | 198 to 199 | COc1ccc(CCC(Oc2ccc(-c3cc4ccccc4s3)cc2)C(=O)O)cc1 (stereo not shown) [Example 142] | 
8 | 140 | O=C(O)[C@H](CCc1ccccc1)Oc1ccc(-c2cccnc2)cc1 [Example 7] | 
9 | 124 | O=C(O)[C@H](CCc1ccccc1)Oc1cccc(OCc2ccc3ccccc3n2)c1 [Example 143] | 
10 | 150 to 152 | Cc1nc(-c2ccc(O[C@@H](CCc3ccccc3)C(=O)O)cc2)cs1 [Example 26] | 
11 | 198 | O=C(O)[C@H](CCc1ccccc1)Oc1ccc(-c2cc3ccccc3o2)cc1 [Example 144] | 
12 | 99 to 99.5 | O=C(O)C(CCc1ccco1)Oc1ccc(C(F)(F)F)cc1 (stereo not shown) [Example 228] | 
13 |  | O=C(O)[C@H](CCc1ccccc1)Oc1ccc(-c2ccc(Cl)s2)cc1 [Example 18, (2S)-2-[4-(5-chlorothien-2-yl)phenoxy]-4-phenylbutanoic acid] | PPAR activation factor (reporter gene expression relative to control cells) [1]: 16; PPAR activation factor (reporter gene expression relative to control cells) [2]: 41; luciferase activity in the absence of the binding domain for the PPAR α or γ ligand [3]: zero; CHOL, % var. (percentage of variation versus control) ([4]; D15): +25 ** %; FFA, % var. (percentage of variation versus control) ([4]; D15): −40 ** %; Glycaemia, % var. (percentage of variation versus control) ([4]; D15): −53 ** %; HDL-C, % var. (percentage of variation versus control) ([4]; D15): +10 * %; Triglycerides, % var. (percentage of variation versus control) ([4]; D15): −41 ** %; CHOL (total cholesterol) [4, 5]: 4.57 ± 0.51 mM; FFA (free fatty acids) [4, 5]: 0.42 ± 0.06 mM; Glycaemia [4, 5]: 12.65 ± 7.0 Mm; HDL-C [4, 5]: 3.53 ± 0.24 mM; Triglycerides [4, 5]: 0.77 ± 0.16 mM
14 | 148 | O=C(c1ccc(Cl)cc1)c1ccc(O[C@@H](CCc2ccccc2)C(=O)O)cc1 [Example 6] | 
15 | 102 to 104 | O=C(O)C(CCc1ccco1)Oc1ccc(Br)cc1 (stereo not shown) [Example 227] | 
16 | 165 | Cc1cc(OC(CCc2ccccc2)C(=O)O)cc(=O)o1 (stereo not shown) [Example 207] | 
